We go through 2 compounds from patent US8975289B2, “Benzyl aralkyl ether compounds, method for preparing same, intermediate compounds, use of said compounds, method for treatment and/or prevention, pharmaceutical composition and medicament containing same” (priority 2009, dated 2015).

Format in all cases: cell-based
One experiment relates to Aspergillus Niger 16404. Nature of the experiment: Broth microdilution MIC (M38-A), filamentous fungi, strain I. The note with it: for MIC: Aspergillus niger; for Resistance or sensitivity of the strain to the agent (in words): clinical isolate strain I. How it is done: (§1) For the experiments of the present invention, the dermatophyte-type fungi strains that were obtained from clinical isolates and laboratory isolates, as described in Table 2 as follows, were used:
(§2) The fungal strains were grown on agar potato medium in a sloping chute at a temperature of 30° C. for a period of 7 to 15 days.
(§3) For the experiments, the compound 1-[2-(2,4-dichlorophenyl)-2-{[4-(trifluoromethyl)benzyl]oxy}ethyl]-1H-imidazole (BL-123) in the form of its nitrate salt and miconazole nitrate were used. Both compounds were dissolved in dimethyl sulfoxide (DMSO) to match the final concentration of the compound equal to or less than 1%.
(§4) The methodology used to test the sensitivity of the agent was of broth microdilution according to the method described in Standard M38-A (Reference method for broth dilution tests for determining the sensitivity to antifungal therapy for filamentous fungi; NCCLS, volume 22 No. 16, USA, 2008) as follows.
(§5) The fungus was cultivated pursuant to item 4.1. To the tubes wherein the fungi were grown, 5 mL of saline solution were added in order to extract the fungi from the agar surface. Then, this homogeneous suspension was transferred to a new tube and the colony-forming units (CFUs) were quantified according to counting methods: (i) in Sabouraud dextrose agar plates and (ii) in a Neubauer chamber.
(§6) Then, the fungi strains listed in Table 2 were inoculated in duplicate in a 96-well plate. There were used inocula of from 2 to 6×10^3 CFU/mL of fungi, per well, in a total volume of 0.2 mL of RPMI-1640 (containing L-glutamine and without bicarbonate) buffered at pH 7.0 with MOPS (acid 3-(N-morpholine) 15 propanesulfonic). The procedure was performed in a laminar flow.
(§7) The compounds to be tested were added in a serial dilution, in duplicate, in final concentrations of 16 μg/mL; 8 μg/mL; 4 μg/mL; 2 μg/mL; 1 μg/mL; 0.5 μg/mL; 0.25 μg/mL; 0.125 μg/mL; 0.0625 μg/mL; or 0.03125 μg/mL in culture medium present in each well.
(§8) The incubation of fungi with these compounds was performed by 4, 5, 6 and 7 days at temperatures from 30 to 35° C.
(§9) The fungi quantification was carried out with the growth of fungi in each well being compared to the growth occurred in the negative control by means of a mirror reading. The negative control is represented by fungi grown in culture medium in the absence of the tested compounds. The methodology of this comparison is the numerical rating to which the microdilution well was submitted. In this methodology, value 4 corresponds to no reduction of growth, value 3 corresponds to a slight reduction in growth or approximately 75% of the growth of the negative control, value 2 corresponds to a standout reduction in growth or approximately 50% of growth of negative control; value 1 corresponds to a slight growth or approximately 25% of the growth of the negative control, and value 0 corresponds to optically clear or absence of growth.
(§10) In this experiment, the minimum inhibitory concentration (MIC) is considered as the lowest concentration of the agent capable of inhibiting at least 80% of the growth of colony-forming units (CFUs).
Background: In broth dilution the organism is exposed to a series of concentrations in liquid medium.

For a further experiment, the system named is Microsporum canis 373. The experiment in a line: Broth microdilution MIC (M38-A), filamentous fungi, strain VI. The protocol: as §1, §2, §3, §4, §5, §6, §7, §8
(§11) The fungi quantification was carried out with the growth of fungi in each well being compared to the growth occurred in the negative control by means of a mirror reading. The negative control is represented by fungi grown in culture medium in the absence of the tested compounds. The methodology of this comparison is the numerical rating to which the microdilution well was submitted. […]

The test system of experiment [1] is Candida parapsilosis 22019. The experiment in a line: Broth microdilution MIC (M38-A), filamentous fungi test, strain IX. The conditions noted are these: 96 h; strain IX 22019, reading Day 4, average of four experiments. The protocol: as §1, §2, §3, §4
The fungus was cultivated pursuant to item 4.1. […] Then, this homogeneous suspension was transferred to a new tube and the colony-forming units (CFUs) were quantified according to counting methods: (i) in Sabouraud dextrose agar plates and (ii) in a Neubauer chamber. […]
The fungi quantification was carried out with the growth of fungi in each well being compared to the growth occurred in the negative control by means of a mirror reading. […]

The subject of experiment [2] is Trichophyton mentagrophytes 9533. Nature of the experiment: Broth microdilution MIC (M38-A), filamentous fungi, strain XIII. How it is done:
as §1, §2, §3, §4, §5, §6, §7, §8, §11

Experiment [3] has as its system filamentous fungi strains of Table 2 (n = 13). Nature of the experiment: MIC50, MIC90 and variation of MICs over the 13 strains of Table 2. The note with it: for MIC50 / MIC90: n = 13 strains; for MIC50: read-out: MIC50 (minimum inhibitory concentration to inhibit 50% of strains), Average MIC; for MIC90: read-out: MIC90 (minimum inhibitory concentration to inhibit 90% of strains), Average MIC. The protocol:
as §1, §2, §3, §4, §5, §6, §7, §8, §9, §10

The subject of another experiment is Candida glabrata 2001. The experiment in a line: Broth microdilution MIC (M27-A2), yeast, strain XVI. The conditions noted are these: Nakaseomyces glabratus; strain XVI 2001, 48 hours incubation; read-out: MIC. The protocol:
For the experiments of the present invention (i) yeast strains obtained from clinical isolates and laboratory isolates, and (ii) bacterial strains obtained from laboratory isolates were used, as described in Table 5 as follows. The yeast strains were grown in culture medium Sabouraud Dextrose Agar maintained at a temperature of 35° C. for 48 hours. […] The compounds were dissolved in dimethyl sulfoxide (DMSO) to match the final concentration of the compound equal to or less than 1%. The methodology used to test the sensitivity of the agent was broth microdilution according to the method described in Standard M27-A2 (Reference method for broth dilution tests to determine the sensitivity of yeasts to antifungal therapy-second edition, NCCLS, volume 22 number 15, USA, 2002) as follows. […] Then the suspensions were diluted in culture medium RPMI-1640 (buffered with MOPS 0.165 mol/l) at a final concentration of 50 to 2500 CFU/mL. The diluted suspensions were inoculated in duplicate in a 96-well plate. The procedure was performed in a laminar flow. […] The incubation of fungi with these compounds was carried out for 48 hours at temperature of 30 to 35° C. […] We have agreed in this experiment that the turbid medium is the result of microbial growth and the presence of deposit and a clear medium represents the absence of microbial growth. The minimum inhibitory concentration (MIC) was defined as the lowest tested drug concentration that prevents any degree of […] growth.

Experiment [4] deals with Staphylococcus aureus 6538. The experiment in a line: Broth microdilution MIC (M7-A6), bacteria, strain XVIII. The conditions noted are these: Staphylococcus aureus; strain XVIII 6538, 24 hours incubation; read-out: MIC. How it is done: For the experiments of the present invention (i) yeast strains obtained from clinical isolates and laboratory isolates, and (ii) bacterial strains obtained from laboratory isolates were used, as described in Table 5 as follows. […] The compounds were dissolved in dimethyl sulfoxide (DMSO) to match the final concentration of the compound equal to or less than 1%. The methodology used to test the sensitivity of the agent was broth microdilution according to the method described in Standard M7-A6 (Methodology of sensitivity tests to antimicrobial agents by dilution for bacteria with aerobic growth-6th Edition: NCCLS, volume 23, No. 2, USA, 2003), as follows. […] Then the suspensions were diluted in Mueller Hinton culture medium to a final concentration of 5×10^4CFU/mL. The diluted suspensions were inoculated in 0.1 mL in duplicates in […] plates. The procedure was performed in a laminar flow. […] Incubation of fungi with these compounds was carried out for 24 hours at a temperature of 30 to 35° C. […] We have agreed in this experiment that the turbid medium is the result of microbial growth and the presence of deposit and a clear medium represents the absence of microbial growth. The minimum inhibitory concentration (MIC) was defined as the lowest tested drug concentration that prevents any degree of bacterial growth.

[5] abbreviates: NIGER16404, 96 h, strain I 16404, reading Day 4, average of four experiments, >=80% growth inhibition.
The mark [6] stands for this setting: NIGER16404, 168 h, strain I 16404, reading Day 7, average of four experiments.
Where [7] appears, read: 96 h, strain VI 373, reading Day 4, average of four experiments.
Where [8] appears, read: 168 h, strain VI 373, reading Day 7, average of four experiments.
The mark [9] stands for this setting: 96 h, strain XIII 9533, reading Day 4, average of four experiments.
The mark [10] stands for this setting: 168 h, strain XIII 9533, reading Day 7, average of four experiments.

What is called MIC is the smallest concentration in the dilution series that meets the test's criterion for growth inhibition.

≈ marks a conversion by molar mass, not a printed value. Where two headings read alike, the source gives them in different places.

Take `FC(F)(F)c1ccc(COC(Cn2ccnc2)c2ccc(Cl)cc2Cl)cc1` (centres unmarked) [BL-123, 1-[2-(2,4-dichlorophenyl)-2-{[4-(trifluoromethyl)benzyl]oxy}ethyl]-1H-imidazole]: the MIC in the experiment with Aspergillus Niger 16404 (setting [5]) came out at 8 µg/mL (≈ 19.3 µM); in the experiment on Aspergillus Niger 16404 (setting [6]), 8 µg/mL (≈ 19.3 µM); with Microsporum canis 373 (setting [7]), 0.125 µg/mL (≈ 0.301 µM); in the experiment on Microsporum canis 373 (setting [8]), 0.5 µg/mL (≈ 1.2 µM); in experiment [1], 2 µg/mL (≈ 4.82 µM); in experiment [2] (setting [9]) it was 0.03 µg/mL (≈ 0.0722 µM). The MIC in experiment [2] (setting [10]) is 0.125 µg/mL (≈ 0.301 µM); in the experiment on Candida glabrata 2001, 0.125 µg/mL (≈ 0.301 µM); in experiment [4], 4 µg/mL (≈ 9.63 µM). Further, the “Resistance or sensitivity of the strain to the agent (in words)” value in the experiment with Aspergillus Niger 16404 was “sensitive”. Besides, in experiment [3] (13 different strains, seven different species), the “Inhibitory effect on growth (in words)” value is recorded as “exerts an inhibitory effect on growth”. The MIC50 in experiment [3] (96 h, Day 4) worked out at 0.25 µg/mL (≈ 0.602 µM); in experiment [3] (168 h, Day 7), 0.5 µg/mL (≈ 1.2 µM). Moreover, the MIC90 in experiment [3] (96 h, Day 4) amounted to 4 µg/mL (≈ 9.63 µM); in experiment [3] (168 h, Day 7) it was 8 µg/mL (≈ 19.3 µM).
With `Clc1ccc(COC(Cn2ccnc2)c2ccc(Cl)cc2Cl)c(Cl)c1` (centres unmarked) [Miconazole, miconazole, reference compound], the MIC is over 16 µg/mL against Aspergillus Niger 16404 (setting [5]); over 16 µg/mL with Aspergillus Niger 16404 (setting [6]); 0.5 µg/mL (≈ 1.2 µM) in the experiment on Microsporum canis 373 (setting [7]); 1 µg/mL (≈ 2.4 µM) against Microsporum canis 373 (setting [8]); 1 µg/mL (≈ 2.4 µM) in experiment [1]; 0.06 µg/mL (≈ 0.144 µM) in experiment [2] (setting [9]). In addition, the results for the MIC (in experiment [2] (setting [10]); with Candida glabrata 2001; in experiment [4]) were 0.125 µg/mL (≈ 0.3 µM), 0.125 µg/mL (≈ 0.3 µM) and 2 µg/mL (≈ 4.81 µM), respectively. The “Resistance or sensitivity of the strain to the agent (in words)” value in the experiment with Aspergillus Niger 16404 was “resistant”. Also, the MIC50 in experiment [3] (96 h, Day 4) is 0.5 µg/mL (≈ 1.2 µM); in experiment [3] (168 h, Day 7) it was 1 µg/mL (≈ 2.4 µM). Besides, the MIC90 was over 16 µg/mL in experiment [3] (96 h, Day 4) and over 16 µg/mL in experiment [3] (168 h, Day 7).
